The data set is described as follows: laser scattering particle size analysis of naproxen crystal particles. In kind it is physicochemical. Particulars: HORIBA LA-910 laser scattering particle size analyzer. From the text: The sizes of the crystal particles of naproxen prepared in Examples 6 and 7 and Comparative Example 2 were observed. Specifically, the degree of dispersion of the particle sizes of a nonsteroidal anti-inflammatory drug (NSAID) agent naproxen ((+)-(S)-2-(6-methoxynaphthalen-2-yl)propanoic acid) was observed by using HORIBA LA-910 LASER SCATTERING PARTICLE SIZE ANALYZER. The observation results are each illustrated in FIGS. 16 to 18.

Structures are written as SMILES.

For the compound `COc1ccc2cc([C@H](C)C(=O)O)ccc2c1` [Comparative Example 2, (+)-(s)-2-(6-methoxynaphthalen-2-yl)propanoic acid], the “average particle diameter / average crystal size of naproxen” value is recorded as 9.5 μm.

These data come from patent publication US20150265614A1, “ORAL PREPARATION AND METHOD FOR PRODUCING THE SAME” (CHUNG-ANG UNIVERSITY INDUSTRY-ACADEMY COOPERATION FOUNDATION, priority 2012, published 2015).
